In patent publication US20170058314A1, “NOVEL METHODOLOGY FOR IDENTIFYING ANTI-PERSISTER ACTIVITY AND ANTIMICROBIAL SUSCEPTIBILITY FOR BORRELIA BURGDORFERI AND OTHER BACTERIA” (priority 2014, published 2017):
Values after ≈ are worked out from the molar mass of the structure shown. Read-outs that look alike come from different tables or passages of the source.

Legend:
[1] = tested on: log phase and stationary phase B. burgdorferi culture; test: Antibiotic exposure assay, SYBR Green I/PI (drugs alone and combinations); conditions: for Live cell %, ten day old stationary phase culture (in brackets): 10 μg/mL drugs or combinations, 7 days; for viability at 10 µg/mL: Borreliella burgdorferi, 168 h
Method: To qualitatively determine the effect of antibiotics, 10 μL of each compound from the pre-diluted plate or pre-diluted stock was added to stationary phase B. burgdorferi culture in the 96-well plate. The final volume per well was adjusted to 100 μL at a concentration of 10 μg/mL for each antibiotic. Plates were sealed and placed in a 33° C. incubator for 7 days. The SYBR Green I/PI viability assay was used to assess the live and dead cells after antibiotic exposure as described (Feng, Wang, Shi, et al., 2014). Briefly, 10 μL of SYBR Green I (10,000×stock, Invitrogen) was mixed with 30 μL propidium iodide (PI, 20 mM) into 1.0 mL of sterile dH2O. Then, 10 μL of staining mixture was added to each well and mixed thoroughly. The plates were incubated at room temperature in the dark for 15 minutes followed by plate reading at excitation wavelength at 485 nm and the fluorescence intensity at 535 nm (green emission) and 635 nm (red emission) in microplate reader (HTS 7000 plus Bio Assay Reader, PerkinElmer Inc., USA). With least-square fitting analysis, the regression equation and regression curve of the relationship between percentage of live bacteria and green/red fluorescence ratios was obtained. The regression equation was used to calculate the percentage of live cells in each well of the 96-well plate.
To qualitatively determine the effect of antibiotics, 10 μL of each compound (final concentration 50 μM) from the pre-diluted plate or pre-diluted stock was added to round body form or stationary phase B. burgdorferi culture in the 96-well plate. The final volume per well was adjusted to 100 μL. Plates were sealed and placed in a 33° C. incubator for 7 days. The SYBR Green I/PI viability assay was used to assess the live and dead cells after antibiotic exposure as described (Feng, Wang, Shi, et al., 2014). Briefly, 10 μL of SYBR Green I (10,000×stock, Invitrogen) was mixed with 30 μL propidium iodide (PI, 20 mM, Sigma-Aldrich) into 1.0 mL of sterile dH2O. Then, 10 μL staining mixture was added to each well and mixed thoroughly. The plates were incubated at room temperature in the dark for 15 minutes followed by plate reading at excitation wavelength at 485 nm and the fluorescence intensity at 535 nm (green emission) and 635 nm (red emission) in microplate reader (HTS 7000 plus Bio Assay Reader, PerkinElmer Inc., USA). With least-square fitting analysis, the regression equation and regression curve of the relationship between percentage of live and dead bacteria as shown in green/red fluorescence ratios was obtained. The regression equation was used to calculate the percentage of live cells in each well of the 96-well plate.
Round body form and ten day old stationary phase (in brackets) B. burgdorferi culture was treated with 10 μg/mL drugs or their combinations for 7 days. Residual viable B. burgdorferi was calculated according to the regression equation and ratio of Green/Red fluorescence obtained by SYBR Green I/PI assay as described (Feng, Wang, Shi, et al., 2014). Direct microscopy counting was employed to rectify the results of the SYBR Green I/PI assay. […] Abbreviation: Dox, doxcycline; CefP, cefoperazone; DAP, daptomycin; CefM, cefmetazole; Scp, sulfachlorpyridazine; Art, artemisinin; Nft, nitrofurantoin.

[2] = tested on: stationary phase B. burgdorferi persisters (strain B31); test: SYBR Green I/PI viability assay (plate reader), FDA-approved drug library screen; conditions: for Ratio of Green/Red fluorescence, Primary screening / Ratio of Green/Red fluorescence, Rescreening (first column) / Ratio of Green/Red fluorescence, Rescreening (second column): 7 days, stationary phase; for viability at 50 µM: Borreliella burgdorferi, 168 h, read-out: Residual viable cells (regression equation, SYBR Green I/PI assay)
[3] = tested on: round body form of B. burgdorferi; test: SYBR Green I/PI assay on amoxicillin-induced round body form; conditions: for Live cell %, round body form: 10 μg/mL drugs or combinations; for viability at 50 µM: Borreliella burgdorferi, 168 h, read-out: Residual viable cells (SYBR Green I/PI assay)
[4] = tested on: stationary phase B. burgdorferi persisters (strain B31); test: epifluorescence microscope counting after SYBR Green I/PI staining, FDA drug screen; conditions: for viability at 50 µM: Borreliella burgdorferi, 168 h, read-out: Residual viable cells (epifluorescence microscope counting)
[5] = tested on: S. aureus strains (Newman, USA300, CA-409, CA-127, NY-315); test: Rapid SYBR Green/PI antibiotic susceptibility test; type: cell-based, Staphylococcus aureus; conditions: for cut-off (averaged proportion of killed cells) for resistant strains / cut-off (averaged proportion of killed cells) for susceptible strains: 100 μg/mL, 1.5 hours; for percent killed, resistant strain NY-315: kanamycin 25, erythromycin 400 μg/mL; for percent killed, sensitive Newman strain: kanamycin 25, erythromycin 400, ciprofloxacin 50, gentamicin 400 μg/mL; for percent killed, resistant strain CA-409: kanamycin 25, ciprofloxacin 50, gentamicin 400 μg/mL
[6] = tested on: B. burgdorferi (growing, strain B31); test: MIC determination, standard microdilution method; type: cell-based, Borrelia burgdorferi; conditions: for sensitivity of log phase / multiplying B. burgdorferi (words, FIG. 12): MIC test
[7] = read-out: Live Cell % (residual viable B. burgdorferi), ten-day-old stationary phase culture enriched with micro-colonies, 10 μg/mL each drug, 7 days
[8] = 50 μM, 7-day old stationary phase cells treated for 7 days

| Compound | Ratio of Green/Red fluorescence, Primary screening ([2]; 50 μM) | Ratio of Green/Red fluorescence, Rescreening (first column) ([2]; 50 μM) | Ratio of Green/Red fluorescence, Rescreening (second column) ([2]; 50 μM) | viability at 50 µM [2] [%] | Ratios of green/red fluorescence, Primary screening ([3]; round body form, 50 μM, 7 days) | Ratios of green/red fluorescence, Rescreening (first column) ([3]; round body form, 50 μM, 7 days) | Ratios of green/red fluorescence, Rescreening (second column) ([3]; round body form, 50 μM, 7 days) | viability at 50 µM [4] [%] | further results |
| --- | --- | --- | --- | --- | --- | --- | --- | --- | --- |
| CO[C@@]1(NC(=O)CSCC#N)C(=O)N2C(C(=O)O)=C(CSc3nnnn3C)CS[C@@H]21 [Cefmetazole] | 6.80 | 7.38 | 6.00 | 43 | 6.13 | 6.25 | 6.46 | – | Live cell %, ten day old stationary phase culture (in brackets) [1]: 53%; Live cell %, round body form ([3]; 7 days): 34%; viability at 50 µM [3]: 33% |
| CC(=O)OCC1=C(C(=O)O)N2C(=O)[C@@H](NC(=O)Cc3cccs3)[C@H]2SC1 [Cephalothin] | 6.74 | 6.49 | 6.55 | 40 | – | – | – | 49 | – |
| CO/N=C(\C(=O)N[C@@H]1C(=O)N2C(C(=O)O)=C(COC(N)=O)CS[C@H]12)c1ccco1 [Cefuroxime] | 6.59 | 6.84 | 6.67 | 43 | 6.29 | 6.28 | 6.31 | 49 | viability at 50 µM [3]: 34% |
| CC[C@H]1OC(=O)[C@H](C)[C@@H](O[C@H]2C[C@@](C)(OC)[C@@H](O)[C@H](C)O2)[C@H](C)[C@@H](O[C@@H]2O[C@H](C)C[C@H](N(C)C)[C@H]2O)[C@](C)(O)C[C@@H](C)C(=O)[C@H](C)[C@@H](O)[C@]1(C)O [erythromycin] | – | – | – | – | – | – | – | – | cut-off (averaged proportion of killed cells) for resistant strains [5]: −0.1; cut-off (averaged proportion of killed cells) for susceptible strains [5]: −0.4; percent killed, resistant strain NY-315 ([5]; 30 minutes): 17%; percent killed, sensitive Newman strain ([5]; 30 minutes): 50% |
| Clc1ccc(COC(Cn2ccnc2)c2ccc(Cl)cc2Cl)c(Cl)c1 (centres unmarked) [Mcz, miconazole] | – | – | – | – | – | – | – | – | sensitivity of log phase / multiplying B. burgdorferi (words, FIG. 12) [6]: less potent; viability at 10 µg/mL [1, 7]: 65% |
| CN(C)c1cc(NC(=O)CNC(C)(C)C)c(O)c2c1C[C@H]1C[C@H]3[C@H](N(C)C)C(O)=C(C(N)=O)C(=O)[C@@]3(O)C(O)=C1C2=O [Tigecycline] | 6.98 | 7.06 | 6.96 | 51 | – | – | – | 58 | viability at 10 µg/mL ([1]; read-out: Live Cell % (residual viable B. burgdorferi)): 67% |
| C[C@@H]1CC[C@H]2[C@@H](C)C(=O)O[C@@H]3O[C@@]4(C)CC[C@@H]1[C@]32OO4 [Artemisinin] | – | – | – | – | 5.96 | 6.14 | 6.17 | – | MIC ([6]; Borreliella burgdorferi, growing B. burgdorferi, read-out: MIC): 50 to 100 µg/mL (≈ 177 to 354 µM); Live cell %, ten day old stationary phase culture (in brackets) [1]: 73%; Live cell %, round body form ([3]; 7 days): 28%; viability at 50 µM [3]: 24% |
| gentamicin | – | – | – | – | – | – | – | – | cut-off (averaged proportion of killed cells) for resistant strains [5]: −0.2; cut-off (averaged proportion of killed cells) for susceptible strains [5]: −0.3; percent killed, resistant strain CA-409 ([5]; 30 minutes): 10%; percent killed, sensitive Newman strain ([5]; 30 minutes): 27% |
| CN(C)[C@@H]1C(O)=C(C(N)=O)C(=O)[C@@]2(O)C(O)=C3C(=O)c4c(O)cccc4[C@@](C)(O)[C@H]3C[C@@H]12 [Tetracycline] | – | – | – | 50 | – | – | – | 54 | – |
| Nc1nc(/C(=C/CC(=O)O)C(=O)N[C@@H]2C(=O)N3C(C(=O)O)=CCS[C@H]23)cs1 [Ceftibuten] | 6.81 | 6.78 | 7.27 | 49 | – | – | – | 51 | – |
| NC[C@H]1O[C@H](O[C@H]2[C@H](O)[C@@H](O[C@H]3O[C@H](CO)[C@@H](O)[C@H](N)[C@H]3O)[C@H](N)C[C@@H]2N)[C@H](O)[C@@H](O)[C@@H]1O [kanamycin] | – | – | – | – | – | – | – | – | cut-off (averaged proportion of killed cells) for resistant strains [5]: −0.01; cut-off (averaged proportion of killed cells) for susceptible strains [5]: −0.2; percent killed, resistant strain CA-127 ([5]; 30 minutes, kanamycin 25, ciprofloxacin 50 μg/mL): 5%; percent killed, resistant strain CA-409 ([5]; 30 minutes): 5%; percent killed, resistant strain NY-315 ([5]; 30 minutes): 5%; percent killed, sensitive Newman strain ([5]; 30 minutes): 27% |
| CN(C)CCn1nnnc1SCC1=C(C(=O)O)N2C(=O)[C@@H](NC(=O)Cc3csc(N)n3)[C@H]2SC1 [Cefotiam] | 6.41 | 7.55 | 6.21 | 43 | – | – | – | 42 | sensitivity of log phase / multiplying B. burgdorferi (words, FIG. 12) [6]: very sensitive |
| CC1(C)S[C@@H]2[C@H](NC(=O)C3(N)CCCCC3)C(=O)N2[C@H]1C(=O)O [Cyclacillin] | 6.81 | 6.88 | 7.64 | 53 | – | – | – | 51 | – |
| CC1(C)S[C@@H]2[C@H](NC(=O)Cc3ccccc3)C(=O)N2[C@H]1C(=O)O [Penicillin G] | 7.41 | 7.68 | 7.92 | – | 6.33 | 6.51 | 6.33 | – | Residual viable cells (epifluorescence microscope counting) [4, 8]: 75%; Residual viable cells (regression equation, SYBR Green I/PI assay) [2, 8]: 68%; Residual viable cells (SYBR Green I/PI assay) ([3]; round body form, 50 μM, 7 days): 38% |
| CC[C@H]1OC(=O)[C@H](C)[C@@H](O[C@H]2C[C@@](C)(OC)[C@@H](O)[C@H](C)O2)[C@H](C)[C@@H](O[C@@H]2O[C@H](C)C[C@H](N(C)C)[C@H]2O)[C@](C)(OC)C[C@@H](C)C(=O)[C@H](C)[C@@H](O)[C@]1(C)O [Clarithromycin] | 7.70 | 7.36 | 7.59 | 65 | – | – | – | 70 | viability at 10 µg/mL [1, 7]: 63% |
| CC[C@H]1OC(=O)[C@H](C)[C@@H](O[C@H]2C[C@@](C)(OC)[C@@H](O)[C@H](C)O2)[C@H](C)[C@@H](O[C@@H]2O[C@H](C)C[C@H](N(C)C)[C@H]2O)[C@](C)(O)C[C@@H](C)CN(C)[C@H](C)[C@@H](O)[C@]1(C)O [Azithromycin] | 8.33 | 8.10 | 7.92 | 80 | 6.79 | 6.52 | 6.42 | 77 | viability at 50 µM [3]: 47% |
